Laboratory results published in the NIST ThermoML archive (doi:10.1016/j.fluid.2018.12.025).
Where “and” joins values, the source holds several entries; their conditions need not be identical. Equal values may be shown once. Numbers after ± are expanded uncertainties.

Conditions: 101.33 kPa, Liquid, transient hot wire

CCC[N+]1(C)CCCC1.O=S(=O)([N-]S(=O)(=O)C(F)(F)F)C(F)(F)F
Conditions	thermal conductivity [W/m/K]
279.07 K	0.118 ± 0.0038
300.88 K	0.1176 ± 0.0038
318.32 K	0.1174 ± 0.0038
326.71 K	0.1167 ± 0.0038
340.17 K	0.1178 ± 0.0038
351.81 K	0.1166 ± 0.0038
354.65 K	0.1172 ± 0.0038
389.67 K	0.1162 ± 0.0038
408.29 K	0.1142 ± 0.0037
409.24 K	0.1156 ± 0.0037
434.89 K	0.115 ± 0.0037
435.53 K	0.1138 ± 0.0037

O [water]
Conditions	thermal conductivity [W/m/K]
276.41 K	0.5538 ± 0.018
300.61 K	0.6257 ± 0.02
303.32 K	0.6103 ± 0.02
306.14 K	0.6095 ± 0.02
325.57 K	0.6581 ± 0.021
329.48 K	0.6422 ± 0.021
333.39 K	0.6498 ± 0.021
350.97 K	0.6877 ± 0.022
355.05 K	0.672 ± 0.022
356 K	0.6781 ± 0.022
356.22 K	0.6716 ± 0.022
356.54 K	0.6823 ± 0.022
356.76 K	0.6589 ± 0.021
356.9 K	0.6827 ± 0.022
360.47 K	0.6765 ± 0.022
361.52 K	0.6756 ± 0.022

CCCC[N+]1(C)CCCC1.O=S(=O)([N-]S(=O)(=O)C(F)(F)F)C(F)(F)F
Conditions	thermal conductivity [W/m/K]
279.16 K	0.1159 ± 0.0037
294.59 K	0.115 ± 0.0037
306.65 K	0.1157 ± 0.0037
334.78 K	0.114 ± 0.0037
335.13 K	0.1143 ± 0.0037
338.98 K	0.1136 ± 0.0037
353.98 K	0.1153 ± 0.0037
362.23 K	0.1135 ± 0.0037
364.36 K	0.1142 ± 0.0037
383.56 K	0.1134 ± 0.0037
419.99 K	0.1126 ± 0.0036
438.07 K	0.1123 ± 0.0036

Cc1ccccc1 [toluene]
Conditions	thermal conductivity
276.19 K	0.1359 ± 0.0044 W/m/K
278.42 K	0.1339 ± 0.0043 W/m/K
281.25 K	0.1324 ± 0.0043 W/m/K and 0.1325 ± 0.0043 W/m/K
302.05 K	0.129 ± 0.0042 W/m/K
304.59 K	0.1268 ± 0.0041 W/m/K
329.65 K	0.1235 ± 0.004 W/m/K
331.24 K	0.1237 ± 0.004 W/m/K
337.63 K	0.1242 ± 0.004 W/m/K
339.65 K	0.122 ± 0.0039 W/m/K
339.85 K	0.1226 ± 0.004 W/m/K
340.17 K	0.12 ± 0.0039 W/m/K
351.33 K	0.1166 ± 0.0038 W/m/K
351.55 K	0.12 ± 0.0039 W/m/K
352.25 K	0.1179 ± 0.0038 W/m/K
